In patent publication US7439225B2, “Substances K01-B0171 and process for producing the same” (The Kitasato Institute, priority 2003, dated 2008):
Positions of bridges follow the written chain, without caps; N, C: chain ends. Residues, ends and D or L forms follow the SMILES beside them.

Key:
Solubility in solvent = type: physicochemical
[1] = Grouping for acidic, neutral and basic; type: physicochemical

| Structure (SMILES) | Solubility in solvent (Solubility in solvent) | Grouping for acidic, neutral and basic [1] |
| --- | --- | --- |
| CCC(C)C(NC(=O)C(NC(=O)C(CC(N)=O)NC(=O)C(CO)NC(=O)C(Cc1c[nH]cn1)NC(=O)CNC(=O)C(NC(=O)C(Cc1c[nH]c2ccccc12)NC(=O)C1CCC(=O)NCC(=O)NC(CO)C(=O)NC(CCC(N)=O)C(=O)NC(CC(C)C)C(=O)NC(C(C)C)C(=O)NC(Cc2ccc(O)cc2)C(=O)NC(CCCNC(=N)N)C(=O)N1)C(C)C)C(C)C)C(=O)NC(CCCCN)C(=O)N1CCCC1C(=O)O (stereo not shown) [K01-B0171-B substance] (GSQLVYREWVGHSNVIKP-OH; lactam N-8; configuration not given here) | soluble in water, dimethyl sulfoxide (DMSO), methanol and ethanol, and insoluble in acetonitrile, ethyl acetate, chloroform and acetone | Weak basic substance |
| CCC(C)C(NC(=O)C(NC(=O)C(CC(N)=O)NC(=O)C(CO)NC(=O)C(Cc1c[nH]cn1)NC(=O)CNC(=O)C(NC(=O)C(Cc1c[nH]c2ccccc12)NC(=O)C1CCC(=O)NCC(=O)NC(CO)C(=O)NC(CCC(N)=O)C(=O)NC(CC(C)C)C(=O)NC(C(C)C)C(=O)NC(Cc2ccc(O)cc2)C(=O)NC(CCCNC(=N)N)C(=O)N1)C(C)C)C(C)C)C(=O)NC(CCCCN)C(=O)NCC(=O)N1CCCC1C(=O)N1CCCC1C(=O)O (stereo not shown) [K01-B0171-C substance] (GSQLVYREWVGHSNVIKGPP-OH; lactam N-8; configuration not given here) | soluble in water, dimethyl sulfoxide (DMSO), methanol and ethanol, and insoluble in acetonitrile, ethyl acetate, chloroform and acetone | Weak basic substance |
